# Laboratory results taken from US8877775B2, “Substituted 2-aza-bicyclo[2.2.2]octane-3-carboxylic acid (benzyl-cyano-methyl)-amides inhibitors of cathepsin C” (Boehringer Ingelheim International GmbH, priority 2013, dated 2014).
# Key:
# [1] = test system: Neutrophil elastase activity in U937 cells; assay: Neutrophil elastase activity in U937 cytosolic lysate after incubation with test compound; format: cell-based; details: Homo sapiens, U-937; U937 cells incubated 48 hours with compound; NE activity in lysate; read-out: Reduction of NE-activity in U937 cells IC50
# Procedure: Determination of Neutrophil Elastase Activity in U937 Cytosolic Lysate Preparation after Incubation with Test Compound Materials: Optiplate 384F were purchased from PerkinElmer (Prod. No. #6007270). 24 well Nunclon cell culture plates (No. 142475) and 96 well plates (No. 267245) were from Nunc. Dimethylsulfoxid (DMSO) was from Sigma (Prod. No. D8418). Nonidet-P40 (NP40) was from USBiological (Prod. No. N3500) Substrate, specific for Neutrophil elastase, was from Bachem (MeOSuc-Ala-Ala-Pro-Val-AMC; Prod. No. I-1270). Human neutrophil elastase was from Calbiochem (Prod. No. 324681) Buffers: Tris-buffer (100 mM Tris; 1M NaCL; pH 7.5) Tris-buffer+HSA 0.1%; Human Serum Albumin from Calbiochem (Cat#. 126658) Serine-protease buffer (20 mM Tris; 100 mM NaCL; pH 7.5)+0.1% HSA Serine protease lysis buffer: 20 mM Tris-HCL; 100 mM NaCl pH 7.5; +0.2% Nonidet-P40; PBS: phosphate buffered saline, without Ca and Mg, from Gibco Cell Culture: U937 from ECACC (Cat. No. 85011440) cultured in suspension at 37° C. and 5% CO2. Cell density: 0.2-1 Mio. Cells/ml. Medium: RPMI1640 GlutaMAX (No. 61870) with 10% FCS from Gibco Cell Seeding and Treatment: Compounds in 100% DMSO were diluted in Medium (—FCS) with 10% DMSO and further diluted according to the experiment planned. 20 μl of the compound solution was transferred in the respective wells of the 24 well plate and diluted with 2 ml cell suspension/well containing 1′10^5 cells/ml (final concentration of DMSO=0.1%). Compound dilution factor=100 Compounds (up to 7 concentrations) were tested in triplicates with 3 wells for the DMSO 0.1% control, incubated for 48 hours without medium change at 37° C., 5% CO2 and 95% relative to humidity. Cell Harvesting and Cell Lysate:
# Transfer the cell suspension in 2.2 ml Eppendorf cups. Separate cells from medium by centrifugation (400×g; 5 min; RT); discard the supernatant. Resuspend in 1 ml PBS; centrifugation (400×g; 5 min; RT); wash cells twice with PBS. Add 100 μl Serin lysis buffer (ice cold) to the cell pellet; resuspend the pellet and store on ice for 15 minutes. Remove debris by centrifugation at 15000×g for 10 min at 4° C. Transfer 80-100 μl lysate supernatant in 96 well plate and store immediately at −80° C.
# Neutrophil Elastase Activity Assay:
# Frozen lysates were thawn at 37° C. for 10 minutes and stored on ice. Protein content was determined with Bradford protein assay. Lysates were diluted to 0.2-0.5 mg/ml protein in serine protease buffer+HSA.
# Standard: NE (100 μg/ml stocksolution in Tris-buffer; stored at −80° C.) was diluted in Tris-buffer+HSA to 750 ng/ml, and further serially diluted 1:2 for the standard curve.
# Buffer, blank, standard and lysate samples were transferred into 384 well plate
# The increase in fluorescence (Ex360 nm/Em 460 nm) is determined over 30 minutes with a Molecular Device Spectramax M5 Fluorescence Reader. Kinetic Reduction (Vmax units/sec); 4 vmax points. The amount of neutrophil elastase (ng/ml) is calculated using the standard curve and the Spectramax software. The result is interpolated to ng/mg lysate protein using excel formula functions. […] IC50 is calculated using Graphpad Prism; nonlinear fitting (log(inhibitor) vs. response—Variable slope). The IC50 value is interpolated as the concentration of test compound which leads to a neutrophil elastase activity reduction of 50% (relative to the DMSO-treated control).
# [2] = Metabolic stability with human liver microsomes; format: in vitro ADME; details: pH 7.6; pooled human liver microsomes, 37° C., 1 μM test compound, 1 mg/ml protein, NADPH; read-out: In vitro stability in human liver microsome incubations t1/2
# Procedure: Determination of Metabolic Stability with Human Liver Microsomes
# The metabolic degradation of the test compound is assayed at 37° C. with pooled human liver microsomes. The final incubation volume of 100 μl per time point contains TRIS buffer pH 7.6 (0.1 M), magnesium chloride (5 mM), microsomal protein (1 mg/ml) and the test compound at a final concentration of 1 μM. Following a short preincubation period at 37° C., the reactions are initiated by addition of beta-nicotinamide adenine dinucleotide phosphate, reduced form (NADPH, 1 mM) and terminated by transfering an aliquot into acetonitrile after different time points. Additionally, the NADPH-independent degradation is monitored in incubations without NADPH, terminated at the last time point. The [%] remaining test compound after NADPH independent incubation is reflected by the parameter c(control) (metabolic stability). The quenched incubations are pelleted by centrifugation (10′000 g, 5 min). An aliquot of the supernatant is assayed by LC-MS/MS for the amount of parent compound.
# The half-life (t1/2 INVITRO) is determined by the slope of the semilogarithmic plot of the concentration-time profile. The intrinsic clearance (CL_[…]) is calculated by considering the amount of protein in the incubation: CL_[…][μl/min/mg protein]=(In 2/(half-life[min]*protein content[mg/ml]))*1′000. The half-life (t1/2 INVITRO) values of selected compounds in the metabolic stability assay described above are listed in the following table
Structure (SMILES),IC50 [1] [nM],half-life at 1 μM [2] [h]
CS(=O)(=O)c1cccc(-c2ccc(C[C@@H](C#N)NC(=O)[C@H]3NC4CCC3CC4)cc2)c1 [Example 10],426,> 2.17
"N#Cc1ccc(-c2ccc(C[C@@H](C#N)NC(=O)[C@H]3N[C@H]4CC[C@@H]3CC4)cc2)cc1F [Example 7, (2S)—N-[(1S)-1-cyano-2-[4-(4-cyano-3-fluoro-phenyl)phenyl]ethyl]-3-azabicyclo[2.2.2]octane-2-carboxamide]",561,> 2.17
CS(=O)(=O)c1cc(-c2ccc(C[C@@H](C#N)NC(=O)[C@H]3NC4CCC3CC4)cc2)ccc1C#N [Example 8],469,> 2.17

# Next, values leading:
IC50 [1] [nM],half-life at 1 μM [2] [h],Structure (SMILES)
328,> 2.17,N#C[C@H](Cc1ccc(-c2ccc3c(c2)CNC3=O)cc1)NC(=O)[C@H]1NC2CCC1CC2 [Example 11]
281,2,"N#C[C@H](Cc1ccc(-c2ccc3c(c2)NC(=O)C3)cc1)NC(=O)[C@H]1NC2CCC1CC2 [Example 2, (2S)—N-[(1S)-cyano-2-[4-(2-oxoindolin-6-yl)phenyl]ethyl]-3-azabicyclo[2.2.2]octane-2-carboxamide]"
50,1.47,CN1C(=O)Cc2ccc(-c3ccc(C[C@@H](C#N)NC(=O)[C@H]4N[C@H]5CC[C@@H]4CC5)cc3)cc21 [Example 4]
450,1.07,CS(=O)(=O)Nc1cccc(-c2ccc(C[C@@H](C#N)NC(=O)[C@H]3NC4CCC3CC4)cc2)c1 [Example 12]
